Consider one compound from patent US12391683B2, “Therapeutic compounds and methods” (Actio Biosciences, Inc., priority 2022, dated 2025).

A word on the EC50: it is the concentration giving half of the maximal effect. One may read the IC50 as the concentration that gives 50% inhibition.

The target of data set [1] is recombinant human CYP3A4 enzyme (Homo sapiens, UniProt P08684). Description: CYP3A4 incubation assay. The format is in vitro ADME. The protocol: Example 24. CYP3A4 Incubation Assay
Compounds (final concentration […]) were incubated in 100 mM phosphate buffer containing 100 pmol/mL recombinant human CYP3A4 enzyme for 0, 5, 10, 15 and 25 minutes.
Testosterone was used as positive control. Reaction was initiated by the addition of NADPH (final concentration […]) and carried out at 37° C. The reaction was stopped by the addition of 4 volumes of cold acetonitrile (with 100 nM alprazolam, 200 nM labetalol, 200 nM imipramine and 2 μM ketoprofen as internal standards). Samples were centrifuged at 3,220 g for 40 minutes to precipitate protein. 70 μL supernatant was transferred to the analysis plate containing 110 μL of acetonitrile for LC-MS/MS analysis.
The following table indicates the percentage remaining for the indicated examples after incubation with recombinant Human CYP3A4 after 25 minutes under the same conditions as described for Example […].

In another data set the target is T1, TRPM4 channels (Homo sapiens, UniProt Q8TD43).
T1 construct: expressed in transfected cells; host or cells: CHO
Description: TRP Family FLIPR Assay, TRPM4. Format: cell-based. The conditions noted are these: CHO cells. On the procedure:
(§1) The compound of Example 5 was tested for selectivity against a panel of Human TRP family ion channels in a TRP Family FLIPR Assay as described below. • 1. TRPC3 channels (human TRPC3 variant 1 gene, expressed in HEK293 cells). • 2. TRPC4 channels (human TRPC4 gene, expressed in HEK293 cells). • 3. TRPC5 channels (human TRPC5 gene, expressed in HEK293 cells). • 4. TRPC6 channels (human TRPC6 gene, expressed in HEK293 cells). • 5. TRPM2 channels (human TRPM2 gene, transiently expressed in HEK293 cells). • 6. TRPM3 channels (human TRPM3 gene, transiently expressed in HEK293 cells). • 7. TRPM4 channels (human TRPM4 gene, expressed in CHO cells). • 8. […]
(§2) Data acquisition was performed via the FLIPR Control software supplied with the FLIPR System (MDS-AT) and data was analyzed using Microsoft Excel (Microsoft Corp., Redmond, WA) or GraphPad Prism. […]
(§3) [formula] where Base is the response at low concentrations of test article, Max is the maximum response at high concentrations, xhalf the EC50, or IC50, the concentration of test article producing either half-maximal activation or inhibition, and rate is the Hill coefficient. […] No assumptions about the fit parameters was made; the fit parameters were determined by the algorithm.
(§4) The effect of each test article was evaluated at eight (8) concentrations: 0.003, 0.01, 0.03, 0.1, 0.3, 1, 3 and 10 μM, n≤4 wells/concentration). […]

The target of the next data set is T2, TRPA1 channels (Homo sapiens, UniProt O75762).
T2 construct: expressed in transfected cells; host or cells: CHO
Description: TRP Family FLIPR Assay, TRPA1. The format is cell-based. The conditions noted are these: CHO cells. On the procedure: as §1, §2, §3, §4

Molecules are shown by their SMILES. Where “and” joins values, the source holds several entries; their conditions need not be identical. Equal values may be shown once.

Sequence of recombinant human CYP3A4 enzyme (P08684 whole entry): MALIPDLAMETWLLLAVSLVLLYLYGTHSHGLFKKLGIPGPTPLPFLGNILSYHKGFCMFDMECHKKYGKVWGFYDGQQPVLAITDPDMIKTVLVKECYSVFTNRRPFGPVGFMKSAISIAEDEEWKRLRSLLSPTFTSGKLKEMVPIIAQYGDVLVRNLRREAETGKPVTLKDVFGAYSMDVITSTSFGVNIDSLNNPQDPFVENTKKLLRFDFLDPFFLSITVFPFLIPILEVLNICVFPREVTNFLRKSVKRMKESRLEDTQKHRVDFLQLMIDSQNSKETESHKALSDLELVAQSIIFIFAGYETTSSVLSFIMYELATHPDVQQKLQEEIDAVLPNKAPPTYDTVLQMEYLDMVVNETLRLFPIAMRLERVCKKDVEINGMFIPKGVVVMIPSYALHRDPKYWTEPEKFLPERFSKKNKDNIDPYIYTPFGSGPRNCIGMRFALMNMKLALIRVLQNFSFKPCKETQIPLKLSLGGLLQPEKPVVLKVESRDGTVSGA
T1 sequence (Q8TD43 whole entry): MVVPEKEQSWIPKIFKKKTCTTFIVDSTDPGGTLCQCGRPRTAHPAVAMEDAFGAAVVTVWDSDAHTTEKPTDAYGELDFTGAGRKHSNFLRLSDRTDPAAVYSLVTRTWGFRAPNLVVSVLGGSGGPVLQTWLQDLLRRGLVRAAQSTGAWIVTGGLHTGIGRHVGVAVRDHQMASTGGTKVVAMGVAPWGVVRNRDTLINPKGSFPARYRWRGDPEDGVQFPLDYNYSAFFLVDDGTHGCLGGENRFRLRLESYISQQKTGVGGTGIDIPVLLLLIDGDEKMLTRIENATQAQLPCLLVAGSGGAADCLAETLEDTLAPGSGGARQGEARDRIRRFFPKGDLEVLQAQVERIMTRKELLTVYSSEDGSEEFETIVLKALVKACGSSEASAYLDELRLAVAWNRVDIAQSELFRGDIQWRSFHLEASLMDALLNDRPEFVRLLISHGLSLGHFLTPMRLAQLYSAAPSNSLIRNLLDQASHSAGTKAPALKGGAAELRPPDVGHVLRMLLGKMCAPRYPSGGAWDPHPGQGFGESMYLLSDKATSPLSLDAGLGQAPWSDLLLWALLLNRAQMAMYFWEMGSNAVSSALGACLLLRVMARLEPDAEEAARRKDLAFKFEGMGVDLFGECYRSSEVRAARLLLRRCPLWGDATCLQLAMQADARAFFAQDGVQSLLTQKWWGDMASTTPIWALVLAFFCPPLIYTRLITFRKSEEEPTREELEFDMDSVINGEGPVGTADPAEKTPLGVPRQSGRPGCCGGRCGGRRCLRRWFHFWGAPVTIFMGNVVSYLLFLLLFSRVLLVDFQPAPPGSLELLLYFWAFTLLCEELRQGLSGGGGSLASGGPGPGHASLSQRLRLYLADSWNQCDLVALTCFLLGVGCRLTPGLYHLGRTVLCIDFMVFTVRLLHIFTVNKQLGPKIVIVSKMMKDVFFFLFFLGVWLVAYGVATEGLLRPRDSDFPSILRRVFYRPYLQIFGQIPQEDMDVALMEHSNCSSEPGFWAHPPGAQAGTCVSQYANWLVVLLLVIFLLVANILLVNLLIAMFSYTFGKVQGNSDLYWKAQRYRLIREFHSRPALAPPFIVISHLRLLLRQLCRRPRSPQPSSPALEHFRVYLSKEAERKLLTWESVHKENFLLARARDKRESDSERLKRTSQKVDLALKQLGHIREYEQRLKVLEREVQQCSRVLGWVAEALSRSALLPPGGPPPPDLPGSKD
T2 sequence (O75762 whole entry): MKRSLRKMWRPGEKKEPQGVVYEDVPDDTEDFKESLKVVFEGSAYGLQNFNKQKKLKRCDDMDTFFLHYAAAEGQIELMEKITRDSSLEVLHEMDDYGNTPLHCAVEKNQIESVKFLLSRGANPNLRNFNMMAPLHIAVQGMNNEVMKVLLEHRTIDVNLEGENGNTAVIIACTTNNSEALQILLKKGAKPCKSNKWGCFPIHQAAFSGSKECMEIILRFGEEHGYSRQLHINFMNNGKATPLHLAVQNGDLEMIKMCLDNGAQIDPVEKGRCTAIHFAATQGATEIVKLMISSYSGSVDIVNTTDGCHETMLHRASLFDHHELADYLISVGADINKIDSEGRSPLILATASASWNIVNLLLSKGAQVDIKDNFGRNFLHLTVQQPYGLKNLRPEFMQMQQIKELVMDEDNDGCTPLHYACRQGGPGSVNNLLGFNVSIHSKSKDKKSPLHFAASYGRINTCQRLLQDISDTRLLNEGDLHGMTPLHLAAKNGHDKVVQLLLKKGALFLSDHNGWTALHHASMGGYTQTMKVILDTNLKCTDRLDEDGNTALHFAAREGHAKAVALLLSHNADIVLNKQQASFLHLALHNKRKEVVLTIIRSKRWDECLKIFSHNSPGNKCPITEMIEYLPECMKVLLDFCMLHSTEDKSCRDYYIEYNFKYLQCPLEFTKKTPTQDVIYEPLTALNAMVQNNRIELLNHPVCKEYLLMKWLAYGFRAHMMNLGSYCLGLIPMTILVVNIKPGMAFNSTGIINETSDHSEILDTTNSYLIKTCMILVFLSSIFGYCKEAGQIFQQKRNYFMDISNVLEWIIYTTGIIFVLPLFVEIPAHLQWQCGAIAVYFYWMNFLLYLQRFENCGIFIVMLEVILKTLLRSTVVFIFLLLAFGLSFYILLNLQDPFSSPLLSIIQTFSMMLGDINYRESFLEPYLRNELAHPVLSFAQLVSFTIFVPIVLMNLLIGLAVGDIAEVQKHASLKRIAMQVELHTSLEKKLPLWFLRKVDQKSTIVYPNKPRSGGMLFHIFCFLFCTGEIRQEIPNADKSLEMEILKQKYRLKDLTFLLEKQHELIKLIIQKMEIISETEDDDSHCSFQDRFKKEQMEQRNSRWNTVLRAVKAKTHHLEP

`CC(C)(O)c1cnc(N2C[C@@]3(CC[C@@H](F)[C@](C)(Cn4cnc5ccc(C#N)cc54)C3)OC2=O)cn1` (single isomer, unassigned) [Example 5]: the “CYP3A4 Clint” value in data set [1] (100 pmol/mL recombinant human CYP3A4, 37° C., 0-25 min) is 0.09 μL/min/pmol CYP450 and < 0.07 μL/min/pmol CYP450. Moreover, the “Metabolic Stability in Recombinant Human CYP3A4 + NADPH (% remaining after 25 min)” value in data set [1] (recombinant Human CYP3A4 + NADPH, 25 min) is listed as 100%. In addition, the EC50 at TRPM4 channels (agonist mode, vs EMAX of A23187 3.3 μM, read-out: EC50 hTRMP4) is more than 10 µM; on TRPA1 channels (agonist mode, vs EMAX of mustard oil 600 μM, read-out: EC50 hTRPA1), more than 10 µM. Also, the IC50 was more than 10 µM on TRPM4 channels (antagonist mode, activated with A23187 10 μM, 0.003-10 μM, read-out: IC50 hTRMP4) and more than 10 µM on TRPA1 channels (antagonist mode, activated with mustard oil 80 μM, 0.003-10 μM, read-out: IC50 hTRPA1).
